Reference: patent publication US20180084784A1, “METHODS AND COMPOSITIONS FOR CONTROLLING FUNGUS AND FUNGAL SPORES AND IMPROVING PLANT QUALITY” (BAYER CROPSCIENCE LP, priority 2016, published 2018)
Read-outs that look alike come from different tables or passages of the source.

Assays:
[1] = system: Pythium aphanidermatum zoospores; experiment: Example 3: hydrogen peroxide alone and hydrolase enzyme alone, 12 days incubation; assay type: cell-based
Description: Tests were conducted on fescue leaf blades. […] Two agar plugs containing Pythium aphanidermatum mycelium were placed in the jar containing the fescue leaves and allowed to incubate for 12 days. Ten jars were used in total. […] Each of these jars was subject to the following hydrogen peroxide treatments: […] The remaining five jars were used for testing the effect of hydrolase enzyme alone. Each of these jars was subject to the following enzyme treatments: […] (2) 0.016% enzyme v/v concentration; (3) 0.0016% enzyme v/v concentration; […]

[2] = system: Pythium aphanidermatum zoospores; experiment: Example 8: enzyme and hydrogen peroxide, alone and combined; assay type: cell-based
Description: (§1) Tests were conducted on fescue leaf blades. […] Two agar plugs containing Pythium aphanidermatum mycelium were placed in the jar containing the fescue leaves and allowed to incubate for 7 days.
(§2) A 1.0 ml aliquot was removed from each treatment and streaked onto potato dextrose agar.

[3] = system: Pythium aphanidermatum zoospores; experiment: Example 5: enzyme and hydrogen peroxide, alone and combined; assay type: cell-based
Description: as §1, §2

[4] = system: Pythium aphanidermatum zoospores; experiment: Example 4: hydrogen peroxide alone and enzyme alone, 8 days incubation; assay type: cell-based
Description: Tests were conducted on fescue leaf blades. […] Eleven jars were used in total. […] The remaining six jars were used for testing the effect of hydrolase enzyme alone. Each of these jars was subject to the following enzyme treatments: (1) untreated; (2) 0.16% enzyme v/v concentration; (3) 0.088% enzyme v/v concentration; […] (5) 0.0142% enzyme v/v concentration; and (6) 0.0124% enzyme v/v concentration.

[5] = system: Pythium aphanidermatum zoospores
Description: Tests were conducted on fescue leaf blades. […] Two agar plugs containing Pythium aphanidermatum mycelium were placed in the jar containing the fescue leaves and allowed to incubate for 5 days.
A 1.0 ml aliquot was removed from each treatment and streaked onto potato dextrose agar. […] After five days the plates were examined for Pythium growth.

[6] = system: Pythium aphanidermatum zoospores; experiment: Example 9: enzyme and hydrogen peroxide, alone and combined; assay type: cell-based
Description: as §1
A 1.0 mL aliquot was removed from each treatment and streaked onto potato dextrose agar.

[7] = system: Pythium aphanidermatum zoospores; experiment: Example 6: enzyme and hydrogen peroxide, alone and combined; assay type: cell-based
Description: as §1, §2

[8] = system: Pythium aphanidermatum zoospores; experiment: Example 7: enzyme and hydrogen peroxide, confirmation of Example 6
Description: Tests were conducted on fescue leaf blades. Five one-inch long fescue leaf blades were placed in 100 ml water in a 250 ml jar and sterilized for 2 consecutive days for 20 min. Two agar plugs containing Pythium aphanidermatum mycelium were placed in the jar containing the fescue leaves and allowed to incubate for 7 days.
A 1.0 ml aliquot was removed from each treatment and streaked onto potato dextrose agar. […] After three days the plates were examined for Pythium growth.

[9] = 0.003% hydrogen peroxide v/v concentration
[10] = 0.006% hydrogen peroxide v/v concentration
[11] = 0.012% hydrogen peroxide v/v concentration
[12] = 0.03% hydrogen peroxide v/v concentration
[13] = 0.014% hydrogen peroxide v/v concentration
[14] = 0.02% hydrogen peroxide v/v concentration
[15] = 0.016% hydrogen peroxide v/v concentration
[16] = 0.018% hydrogen peroxide v/v concentration
[17] = 0.0003% hydrogen peroxide v/v concentration

OO [hydrogen peroxide]
% of Potato Dextrose Sugar Agar Plate Covered with Pythium [1, 9]: 100%
Number of plates (4 reps) with Pythium growth after 3 days [1, 9]: 4
% of Potato Dextrose Sugar Agar Plate Covered with Pythium [1, 10]: 50-90%
Number of plates (4 reps) with Pythium growth after 3 days [1, 10]: 4
% of Potato Dextrose Sugar Agar Plate Covered with Pythium [1, 11]: <50%
Number of plates (4 reps) with Pythium growth after 3 days [1, 11]: 4
% of Potato Dextrose Sugar Agar Plate Covered with Pythium [1, 12]: 0%
Number of plates (4 reps) with Pythium growth after 3 days [1, 12]: 0
Pythium growth on plates ([1]; all tested concentrations of hydrogen peroxide except 0.03% v/v): grew on all plates
% of Potato Dextrose Sugar Agar Plate Covered with Pythium [2, 13]: 90%
Number of plates (4 reps) with Pythium growth after 3 days [2, 13]: 4
% of Potato Dextrose Sugar Agar Plate Covered with Pythium [2, 14]: 56.3%
Number of plates (4 reps) with Pythium growth after 3 days [2, 14]: 4
% of Potato Dextrose Sugar Agar Plate Covered with Pythium [3, 9]: 100%
Number of plates (4 reps) with Pythium growth after 3 days [3, 9]: 4
% of Potato Dextrose Sugar Agar Plate Covered with Pythium [3, 13]: 71.25%
Number of plates (4 reps) with Pythium growth after 3 days [3, 13]: 4
% of Potato Dextrose Sugar Agar Plate Covered with Pythium [4, 11]: 36.25%
% of Potato Dextrose Sugar Agar Plate Covered with Pythium [4, 13]: 60%
% of Potato Dextrose Sugar Agar Plate Covered with Pythium [4, 15]: 0%
% of Potato Dextrose Sugar Agar Plate Covered with Pythium [4, 16]: 0%
% Reduction of Pythium [5, 17]: 0%
Number of plates (4 reps) with Pythium growth after 5 days [5, 17]: 4
% Reduction of Pythium [5, 9]: 0%
Number of plates (4 reps) with Pythium growth after 5 days [5, 9]: 4
% Reduction of Pythium [5, 12]: 75%
Number of plates (4 reps) with Pythium growth after 5 days [5, 12]: 1
% Reduction of Pythium ([5]; 0.3% hydrogen peroxide v/v concentration): 100%
% Reduction of Pythium ([5]; 1.5% hydrogen peroxide v/v concentration): 100%
% of Potato Dextrose Sugar Agar Plate Covered with Pythium [6, 13]: 100%
Number of plates (4 reps) with Pythium growth after 3 days [6, 13]: 4
% of Potato Dextrose Sugar Agar Plate Covered with Pythium [6, 15]: 63.75%
Number of plates (4 reps) with Pythium growth after 3 days [6, 15]: 4
% of Potato Dextrose Sugar Agar Plate Covered with Pythium [6, 16]: 91.25%
Number of plates (4 reps) with Pythium growth after 3 days [6, 16]: 4
% of Potato Dextrose Sugar Agar Plate Covered with Pythium [6, 14]: 25%
Number of plates (4 reps) with Pythium growth after 3 days [6, 14]: 4
% of Potato Dextrose Sugar Agar Plate Covered with Pythium [7, 13]: 17.5%
Number of plates (4 reps) with Pythium growth after 3 days [7, 13]: 1
% of Potato Dextrose Sugar Agar Plate Covered with Pythium [7, 15]: 10%
Number of plates (4 reps) with Pythium growth after 3 days [7, 15]: 1
% of Potato Dextrose Sugar Agar Plate Covered with Pythium [7, 16]: 17.5%
Number of plates (4 reps) with Pythium growth after 3 days [7, 16]: 1
% of Potato Dextrose Sugar Agar Plate Covered with Pythium [8, 13]: 72.5%
Number of plates (4 reps) with Pythium growth after 3 days [8, 13]: 4
% of Potato Dextrose Sugar Agar Plate Covered with Pythium [8, 15]: 38.8%
Number of plates (4 reps) with Pythium growth after 3 days [8, 15]: 4
% of Potato Dextrose Sugar Agar Plate Covered with Pythium [8, 16]: 85.8%
Number of plates (4 reps) with Pythium growth after 3 days [8, 16]: 4
